Reference: US7582678B2, “Use of branched-chain fatty acids and derivatives thereof for the treatment of pain” (D-PHARM Limited, priority 1998, dated 2009)
Marks after values point to notes of the source that are not given here.

System: Male CD-1 mice
Experiment: Tail flick assay (radiated heat, acute pain) in mice;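 further: infrared heat aimed at the tail of restrained mice, time until tail flick recorded as mean of 2-3 readings, 4-8 animals per group, compared with vehicle-treated animals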
Conditions: for size of analgesic effect, ranking among tested compounds: tail flick, Table 1
[1] = I.P., 200 mg/kg, 15 min post-injection
[2] = I.P., 200 mg/kg, 45 min post-injection
[3] = I.P., 200 mg/kg, 75 min post-injection
[4] = I.P., 200 mg/kg, 105 min post-injection
[5] = I.P., 200 mg/kg, 135 min post-injection
[6] = I.P., 100 mg/kg, 15 min post-injection
[7] = I.P., 100 mg/kg, 45 min post-injection
[8] = I.P., 100 mg/kg, 75 min post-injection
[9] = I.P., 100 mg/kg, 105 min post-injection
[10] = I.P., 100 mg/kg, 135 min post-injection
[11] = I.P., 50 mg/kg, 15 min post-injection
[12] = I.P., 50 mg/kg, 45 min post-injection
[13] = I.P., 50 mg/kg, 75 min post-injection
[14] = I.P., 50 mg/kg, 105 min post-injection
[15] = I.P., 50 mg/kg, 135 min post-injection
[16] = I.P., 50 mg/kg, 285 min post-injection
[17] = I.P., 50 mg/kg, 345 min post-injection
[18] = I.P., 100 mg/kg, 285 min post-injection
[19] = I.P., 100 mg/kg, 345 min post-injection

SMILES | Withdrawal latency (% of vehicle) [1] | Withdrawal latency (% of vehicle) [2] | Withdrawal latency (% of vehicle) [4] | Withdrawal latency (% of vehicle) [6] | Withdrawal latency (% of vehicle) [7] | Withdrawal latency (% of vehicle) [8] | Withdrawal latency (% of vehicle) [9] | Withdrawal latency (% of vehicle) [10] | Withdrawal latency (% of vehicle) [11] | Withdrawal latency (% of vehicle) [12] | Withdrawal latency (% of vehicle) [13] | Withdrawal latency (% of vehicle) [14] | Withdrawal latency (% of vehicle) [15] | Withdrawal latency (% of vehicle) [16] | Withdrawal latency (% of vehicle) [17] | further results
CCCCCCCC(CCCCCCC)C(=O)O [M(7,7), 2-Heptylnonanoic acid] | 93% of vehicle | 124% of vehicle | 149% of vehicle | – | – | – | – | – | – | – | – | – | – | – | – | Withdrawal latency (% of vehicle) [3]: 117% of vehicle; Withdrawal latency (% of vehicle) [5]: 124% of vehicle
CCCCCCCCCCC(CCC)C(=O)O (stereo not shown) [M(3,10), 2-Propyldodecanoic acid] | 186% of vehicle | 210% of vehicle | 183% of vehicle | 142% of vehicle | 155% of vehicle | 131% of vehicle | 156% of vehicle | 123% of vehicle | – | – | – | – | – | – | – | size of analgesic effect, ranking among tested compounds: largest analgesic effects
CCCCCCCCCCCCCCCCCC(=O)OC[C@H](COP(=O)([O-])OCC[N+](C)(C)C)OC(=O)C(CCCCC)CCCCC [DP-M(5,5), 1-O-stearoyl-2-pentylheptonayl-sn-glycero-3-phosphocholine] | – | – | – | 148% of vehicle | 143% of vehicle | 148% of vehicle | 162% of vehicle | 171% of vehicle | 113% of vehicle | 107% of vehicle | 118% of vehicle | 142% of vehicle | 152% of vehicle | 121% of vehicle | 124% of vehicle | Withdrawal latency (% of vehicle) [18]: 155% of vehicle; Withdrawal latency (% of vehicle) [19]: 124% of vehicle; dose dependence of analgesic effect (i.p. 25, 50, 100 mg/kg (FIG. 1)): dose dependent; size of analgesic effect, ranking among tested compounds: largest analgesic effects
CCCCCCCC(CCC)C(=O)O (stereo not shown) [M(3,7), 2-Propylnonanoic acid] | – | – | – | – | – | – | – | – | – | – | – | – | – | – | – | Withdrawal latency (% of vehicle) (I.P., 150 mg/kg, 15 min post-injection): 157% of vehicle; Withdrawal latency (% of vehicle) (I.P., 150 mg/kg, 45 min post-injection): 137% of vehicle; Withdrawal latency (% of vehicle) (I.P., 150 mg/kg, 75 min post-injection): 106% of vehicle; Withdrawal latency (% of vehicle) (I.P., 150 mg/kg, 105 min post-injection): 131% of vehicle
CCCCCCCCCCC(CCC)C(=O)O (stereo not shown) [M(3,10)—Na, 2-Propyldodecanoic acid] | 158% of vehicle | 220% of vehicle | 141% of vehicle | 181% of vehicle | 153% of vehicle | 121% of vehicle | 143% of vehicle | 148% of vehicle | 151% of vehicle | 138% of vehicle | 128% of vehicle | 123% of vehicle | 102% of vehicle | – | – | Withdrawal latency (% of vehicle) [3]: 216% of vehicle; Withdrawal latency (% of vehicle) [5]: 175% of vehicle
CCCCCC(CCCCC)C(=O)O [M(5,5)—Na, 2-Pentylheptanoic acid] | – | – | – | 137% of vehicle | 164% of vehicle | 164% of vehicle | 193% of vehicle | – | 115% of vehicle | 124% of vehicle | 117% of vehicle | 134% of vehicle | – | – | – | –
CCCCCCCCCCCCCCCCCC(=O)OC[C@H](COP(=O)([O-])OCC[N+](C)(C)C)OC(=O)C(CCC)CCCCCCCCCC (stereo partly shown) [DP-M(3,10), 1-O-stearoyl-2-propyldodecanoyl-sn-glycero-3-phosphocholine] | – | – | – | – | – | – | – | – | 123% of vehicle | 119% of vehicle | 113% of vehicle | 123% of vehicle | 123% of vehicle | 129% of vehicle | 107% of vehicle | –
CN1CC[C@]23c4c5ccc(O)c4O[C@H]2[C@@H](O)C=C[C@H]3[C@H]1C5 [Morphine, reference compound] | – | – | – | – | – | – | – | – | – | – | – | – | – | – | – | Withdrawal latency (% of vehicle) (I.P., 1 mg/kg, 15 min post-injection): 97% of vehicle; Withdrawal latency (% of vehicle) (I.P., 1 mg/kg, 45 min post-injection): 136% of vehicle; Withdrawal latency (% of vehicle) (I.P., 1 mg/kg, 75 min post-injection): 207% of vehicle; Withdrawal latency (% of vehicle) (I.P., 1 mg/kg, 105 min post-injection): 179% of vehicle; Withdrawal latency (% of vehicle) (I.P., 1 mg/kg, 255 min post-injection): 142%** % of vehicle; Withdrawal latency (% of vehicle) (I.P., 10 mg/kg, 15 min post-injection): 139% of vehicle; Withdrawal latency (% of vehicle) (I.P., 10 mg/kg, 45 min post-injection): 171% of vehicle; Withdrawal latency (% of vehicle) (I.P., 10 mg/kg, 75 min post-injection): 284% of vehicle; Withdrawal latency (% of vehicle) (I.P., 10 mg/kg, 105 min post-injection): 238% of vehicle; Withdrawal latency (% of vehicle) (I.P., 10 mg/kg, 255 min post-injection): 151%** % of vehicle
CCCCCCCC(CCCCCCC)OP(=O)(O)O [(7,7)-PO4, 8-Pentadecanyl Phosphate] | – | – | – | – | – | – | – | – | – | – | – | – | – | – | – | Withdrawal latency (% of vehicle) (P.O., 200 mg/kg, 45 min post-administration): 93% of vehicle; Withdrawal latency (% of vehicle) (P.O., 200 mg/kg, 75 min post-administration): 94% of vehicle; Withdrawal latency (% of vehicle) (P.O., 200 mg/kg, 105 min post-administration): 124% of vehicle; Withdrawal latency (% of vehicle) (P.O., 200 mg/kg, 135 min post-administration): 133% of vehicle; Withdrawal latency (% of vehicle) (P.O., 200 mg/kg, 285 min post-administration): 162% of vehicle; Withdrawal latency (% of vehicle) (P.O., 200 mg/kg, 345 min post-administration): 129% of vehicle
CCCCCCCCCCCCCCCCCC(=O)OC[C@H](COP(=O)([O-])OCC[N+](C)(C)C)OC(=O)C(CCC)CCCCCCC (stereo partly shown) [DP-M(3,7), 1-O-stearoyl-2-propylnonayl-sn-glycero-3-phosphocholine] | – | – | – | 127% of vehicle | 156% of vehicle | 124% of vehicle | 114% of vehicle | 126% of vehicle | 132% of vehicle | 123% of vehicle | 119% of vehicle | 102% of vehicle | 112% of vehicle | 119% of vehicle | 114% of vehicle | Withdrawal latency (% of vehicle) [18]: 127% of vehicle; Withdrawal latency (% of vehicle) [19]: 125% of vehicle
